Results taken from PubChem BioAssay (NCI).
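How tested: cells in 96-well plates exposed to compound for 48 hours at five concentrations. At the GI50, growth is halved. TGI marks complete inhibition of growth.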

Key:
Test in all cases: growth of human tumour cells (NCI), 48 h
MDA-MB-231 breast = test system: MDA-MB-231 breast
K-562 leukemia = test system: K-562 leukemia
TK-10 renal = test system: TK-10 renal
HCT-15 colon = test system: HCT-15 colon
LOX IMVI melanoma = test system: LOX IMVI melanoma
HOP-92 NSCLC = test system: HOP-92 NSCLC
HOP-62 NSCLC = test system: HOP-62 NSCLC
COLO 205 colon = test system: COLO 205 colon
SNB-19 CNS = test system: SNB-19 CNS
SR leukemia = test system: SR leukemia
NCI-H23 lung = test system: NCI-H23 lung
M14 melanoma = test system: M14 melanoma
NCI-H460 lung = test system: NCI-H460 lung
NCI-H226 lung = test system: NCI-H226 lung
SNB-75 CNS = test system: SNB-75 CNS
ACHN renal = test system: ACHN renal
SK-MEL-2 melanoma = test system: SK-MEL-2 melanoma
MDA-N = test system: MDA-N
EKVX NSCLC = test system: EKVX NSCLC
SK-MEL-5 melanoma = test system: SK-MEL-5 melanoma
PC-3 prostate = test system: PC-3 prostate
CAKI-1 renal = test system: CAKI-1 renal
HCC-2998 colon = test system: HCC-2998 colon
HL-60(TB) leukemia = test system: HL-60(TB) leukemia
HT29 colon = test system: HT29 colon
U251 CNS = test system: U251 CNS
T-47D breast = test system: T-47D breast
786-0 renal = test system: 786-0 renal
SF-539 CNS = test system: SF-539 CNS
SW-620 colon = test system: SW-620 colon
MALME-3M melanoma = test system: MALME-3M melanoma
HS 578T breast = test system: HS 578T breast
SF-268 CNS = test system: SF-268 CNS
NCI/ADR-RES ovarian = test system: NCI/ADR-RES ovarian
OVCAR-5 ovarian = test system: OVCAR-5 ovarian
SN12C renal = test system: SN12C renal
SK-OV-3 ovarian = test system: SK-OV-3 ovarian
MOLT-4 leukemia = test system: MOLT-4 leukemia
A549 NSCLC = test system: A549 NSCLC
SF-295 CNS = test system: SF-295 CNS
UACC-257 melanoma = test system: UACC-257 melanoma
KM12 colon = test system: KM12 colon
UO-31 renal = test system: UO-31 renal
DU-145 prostate = test system: DU-145 prostate
OVCAR-3 ovarian = test system: OVCAR-3 ovarian
RXF 393 renal = test system: RXF 393 renal
BT-549 breast = test system: BT-549 breast
CCRF-CEM leukemia = test system: CCRF-CEM leukemia
A498 renal = test system: A498 renal
NCI-H522 lung = test system: NCI-H522 lung
MCF7 breast = test system: MCF7 breast
OVCAR-4 ovarian = test system: OVCAR-4 ovarian
UACC-62 melanoma = test system: UACC-62 melanoma
SK-MEL-28 melanoma = test system: SK-MEL-28 melanoma
HCT-116 colon = test system: HCT-116 colon
MDA-MB-435 = test system: MDA-MB-435
OVCAR-8 ovarian = test system: OVCAR-8 ovarian
IGROV1 ovarian = test system: IGROV1 ovarian
RPMI-8226 leukemia = test system: RPMI-8226 leukemia

O=C(Nc1nn(C(=O)c2cccnc2)c(=O)s1)c1ccc(Cl)cc1 showed a TGI (MDA-MB-231 breast) of over 100 µM, a TGI (K-562 leukemia) of over 100 µM and a TGI (TK-10 renal) of over 100 µM. For the same molecule, the TGI (HCT-15 colon) was over 100 µM, the TGI (LOX IMVI melanoma) was over 100 µM and the TGI (HOP-92 NSCLC) was over 100 µM. The TGI (HOP-62 NSCLC) was over 100 µM, the TGI (COLO 205 colon) was over 100 µM and the TGI (SNB-19 CNS) was over 100 µM. It also gave a TGI (SR leukemia) of over 100 µM, a TGI (NCI-H23 lung) of over 100 µM and a TGI (M14 melanoma) of over 100 µM. It also gave a TGI (NCI-H460 lung) of over 100 µM, a TGI (NCI-H226 lung) of 77.2 µM and a TGI (SNB-75 CNS) of 82.2 µM. It also gave a TGI (ACHN renal) of over 100 µM, a TGI (SK-MEL-2 melanoma) of over 100 µM and a TGI (MDA-N) of over 100 µM. It also gave a TGI (EKVX NSCLC) of over 100 µM, a TGI (SK-MEL-5 melanoma) of over 100 µM and a TGI (PC-3 prostate) of over 100 µM. The TGI (CAKI-1 renal) was over 100 µM, the TGI (HCC-2998 colon) was over 100 µM and the TGI (HL-60(TB) leukemia) was over 100 µM. The TGI (HT29 colon) was over 100 µM, the TGI (U251 CNS) was over 100 µM and the TGI (T-47D breast) was over 100 µM. It also gave a TGI (786-0 renal) of over 100 µM, a TGI (SF-539 CNS) of 95.4 µM and a TGI (SW-620 colon) of over 100 µM. For the same molecule, the TGI (MALME-3M melanoma) was 91.5 µM, the TGI (HS 578T breast) was 60.3 µM and the TGI (SF-268 CNS) was 40.4 µM. For the same molecule, the TGI (NCI/ADR-RES ovarian) was over 100 µM, the TGI (OVCAR-5 ovarian) was over 100 µM and the TGI (SN12C renal) was over 100 µM. It also gave a TGI (SK-OV-3 ovarian) of over 100 µM, a TGI (MOLT-4 leukemia) of over 100 µM and a TGI (A549 NSCLC) of over 100 µM. For the same molecule, the TGI (SF-295 CNS) was over 100 µM, the TGI (UACC-257 melanoma) was over 100 µM and the TGI (KM12 colon) was over 100 µM. It also gave a TGI (UO-31 renal) of 78.9 µM, a TGI (DU-145 prostate) of over 100 µM and a TGI (OVCAR-3 ovarian) of over 100 µM. For the same molecule, the TGI (RXF 393 renal) was 93.8 µM, the TGI (BT-549 breast) was over 100 µM and the TGI (CCRF-CEM leukemia) was over 100 µM. It also gave a TGI (A498 renal) of over 100 µM, a TGI (NCI-H522 lung) of 51.7 µM and a TGI (MCF7 breast) of over 100 µM. For the same molecule, the TGI (OVCAR-4 ovarian) was over 100 µM, the TGI (UACC-62 melanoma) was over 100 µM and the TGI (SK-MEL-28 melanoma) was over 100 µM. For the same molecule, the TGI (HCT-116 colon) was over 100 µM, the TGI (MDA-MB-435) was over 100 µM and the TGI (OVCAR-8 ovarian) was over 100 µM.
COC1(CC[C@H](C)COC2OC(CO)C(O)C(O)C2O)O[C@H]2C[C@H]3[C@@H]4CC=C5C[C@@H](OC6OC(CO)C(OC7OC(C)C(O)C(O)C7O)C(O)C6OC6OC(C)C(O)C(O)C6O)CC[C@]5(C)[C@H]4CC[C@]3(C)[C@H]2[C@@H]1C (stereo partly specified) showed a TGI (MDA-MB-231 breast) of 21.1 µM, a TGI (K-562 leukemia) of over 100 µM and a TGI (TK-10 renal) of over 100 µM. The TGI (HCT-15 colon) was 7.47 µM, the TGI (LOX IMVI melanoma) was 3.6 µM and the TGI (HOP-92 NSCLC) was 6.2 µM. The TGI (HOP-62 NSCLC) was 4.09 µM, the TGI (COLO 205 colon) was 64 µM and the TGI (SNB-19 CNS) was 12.4 µM. The TGI (SR leukemia) was over 100 µM, the TGI (NCI-H23 lung) was 19.2 µM and the TGI (IGROV1 ovarian) was 20.1 µM. The TGI (RPMI-8226 leukemia) was 5.93 µM, the GI50 (NCI-H460 lung) was 4.39 µM and the TGI (NCI-H460 lung) was 15.1 µM. It also gave a TGI (NCI-H226 lung) of 31.7 µM, a TGI (SNB-75 CNS) of 3.8 µM and a TGI (ACHN renal) of 29.4 µM. It also gave a TGI (SK-MEL-2 melanoma) of 13.6 µM, a TGI (MDA-N) of 9.57 µM and a TGI (EKVX NSCLC) of 98.8 µM. For the same molecule, the TGI (SK-MEL-5 melanoma) was over 28.6 µM, the TGI (PC-3 prostate) was 11.9 µM and the TGI (CAKI-1 renal) was 3.26 µM. The TGI (HCC-2998 colon) was over 27.9 µM, the TGI (HL-60(TB) leukemia) was 46.6 µM and the TGI (HT29 colon) was 6.8 µM. For the same molecule, the TGI (U251 CNS) was 7.36 µM, the TGI (T-47D breast) was 9.83 µM and the TGI (786-0 renal) was 5.57 µM. The TGI (SF-539 CNS) was 4.05 µM, the TGI (SW-620 colon) was 6.78 µM and the TGI (MALME-3M melanoma) was 9.15 µM. It also gave a TGI (HS 578T breast) of 6.72 µM, a TGI (SF-268 CNS) of 10.3 µM and a TGI (NCI/ADR-RES ovarian) of 11.1 µM. The TGI (OVCAR-5 ovarian) was over 35.5 µM, the TGI (SN12C renal) was over 100 µM and the TGI (SK-OV-3 ovarian) was 7.99 µM. The TGI (MOLT-4 leukemia) was over 100 µM, the TGI (A549 NSCLC) was 4.28 µM and the TGI (SF-295 CNS) was 13.6 µM. It also gave a TGI (UACC-257 melanoma) of 28.7 µM, a TGI (KM12 colon) of 6.65 µM and a TGI (UO-31 renal) of 6.79 µM. The TGI (DU-145 prostate) was 5.77 µM, the TGI (OVCAR-3 ovarian) was 17.6 µM and the TGI (RXF 393 renal) was 18.4 µM. The TGI (BT-549 breast) was 13.1 µM, the TGI (CCRF-CEM leukemia) was over 37.1 µM and the TGI (A498 renal) was 64.5 µM. It also gave a TGI (NCI-H522 lung) of 5.31 µM, a TGI (MCF7 breast) of 39.8 µM and a TGI (OVCAR-4 ovarian) of 18 µM. It also gave a GI50 (UACC-62 melanoma) of 6.95 µM, a TGI (UACC-62 melanoma) of 21.6 µM and a TGI (SK-MEL-28 melanoma) of 15.8 µM. The GI50 (HCT-116 colon) was 2.92 µM, the TGI (HCT-116 colon) was 8.34 µM and the TGI (MDA-MB-435) was 5.3 µM. The TGI (OVCAR-8 ovarian) was 10.1 µM.
For CC1(C)C=C(/C=C2/N(S(=O)(=O)C(F)(F)F)C(/C=C3/N(S(=O)(=O)C(F)(F)F)C(C)(C#N)CC3(C)C)=CC2(C)C)N=C1/C=C1/CC(C)(C)C(=O)N1 (stereo unspecified), the TGI (MDA-MB-231 breast) was over 100 µM, the TGI (K-562 leukemia) was over 100 µM and the TGI (TK-10 renal) was over 100 µM. For the same molecule, the TGI (HCT-15 colon) was 73.6 µM, the TGI (LOX IMVI melanoma) was 72.9 µM and the TGI (HOP-92 NSCLC) was 95.3 µM. For the same molecule, the TGI (HOP-62 NSCLC) was over 100 µM, the TGI (COLO 205 colon) was 39.2 µM and the TGI (SNB-19 CNS) was over 100 µM. The TGI (SR leukemia) was over 100 µM, the TGI (NCI-H23 lung) was over 100 µM and the TGI (IGROV1 ovarian) was 62.9 µM. The TGI (RPMI-8226 leukemia) was 23.4 µM, the TGI (M14 melanoma) was over 100 µM and the TGI (NCI-H460 lung) was over 100 µM. The TGI (NCI-H226 lung) was over 100 µM, the TGI (SNB-75 CNS) was over 100 µM and the TGI (ACHN renal) was over 100 µM. The TGI (SK-MEL-2 melanoma) was over 100 µM, the TGI (MDA-N) was over 100 µM and the TGI (EKVX NSCLC) was 81.2 µM. The TGI (SK-MEL-5 melanoma) was 71.6 µM, the TGI (PC-3 prostate) was over 100 µM and the TGI (CAKI-1 renal) was over 100 µM. The TGI (HCC-2998 colon) was over 100 µM, the TGI (HL-60(TB) leukemia) was 21.2 µM and the TGI (HT29 colon) was over 100 µM. It also gave a TGI (U251 CNS) of over 100 µM, a TGI (T-47D breast) of over 100 µM and a TGI (786-0 renal) of over 100 µM. The TGI (SF-539 CNS) was 84.5 µM, the TGI (SW-620 colon) was over 100 µM and the TGI (HS 578T breast) was 57.7 µM. For the same molecule, the TGI (SF-268 CNS) was 36 µM, the TGI (NCI/ADR-RES ovarian) was over 100 µM and the TGI (OVCAR-5 ovarian) was over 100 µM. The TGI (SN12C renal) was over 100 µM, the TGI (SK-OV-3 ovarian) was over 100 µM and the TGI (MOLT-4 leukemia) was over 100 µM. It also gave a TGI (A549 NSCLC) of over 100 µM, a TGI (SF-295 CNS) of over 100 µM and a TGI (UACC-257 melanoma) of over 100 µM. For the same molecule, the TGI (KM12 colon) was over 100 µM, the TGI (UO-31 renal) was over 100 µM and the TGI (DU-145 prostate) was over 100 µM. For the same molecule, the TGI (OVCAR-3 ovarian) was over 100 µM, the TGI (RXF 393 renal) was 81.3 µM and the TGI (BT-549 breast) was over 100 µM. For the same molecule, the TGI (CCRF-CEM leukemia) was 52.8 µM, the TGI (A498 renal) was over 100 µM and the TGI (NCI-H522 lung) was 27.9 µM. It also gave a TGI (MCF7 breast) of over 100 µM, a TGI (OVCAR-4 ovarian) of over 100 µM and a TGI (UACC-62 melanoma) of 69.1 µM. It also gave a TGI (SK-MEL-28 melanoma) of over 100 µM, a TGI (HCT-116 colon) of 42.8 µM and a TGI (MDA-MB-435) of over 100 µM. The TGI (OVCAR-8 ovarian) was over 100 µM.
